Where a SMILES comes first, the peptide text is derived from it. Bridges are numbered along the chain shown (N, C = ends).
Assays:
[1] = test system: E. coli O111:B4 LPS-challenged BALB/c mice; test: LPS-challenged mice experiment (septicemia model); assay type: in vivo
Experimental: Female BALB/c mice (5-6 weeks) was provided by HFK Bioscience Co. (Beijing, China). All mice were raised in laminar flow cabinets and housed individually in a room with strictly controlled temperature and humidity, where a 12-hour light and 12-hour dark cycle was implemented, and mice had free access to food and water throughout the experimental period.
E. coli O111:B4 LPS (Sigma-Aldrich) at a concentration of 15 mg/L was injected into the peritoneal cavity of female BALB/c mice (age 7 weeks, weight 15 ± 0.5 g), and approximately 30 min after the challenge of E. coli O111:B4 LPS, MccJ25 was orally gavaged to the mice at a concentration of 4.55 or 9.1 mg per kg body weight (BW). The concentrations of MccJ25 were selected based on our previous study ([24]). Mice were followed for 72 h to test the survival rate of mice that were later sacrificed. However, for LPS treated mice, when the lifespan of the mice was around 50%, the mice were sacrificed. The serum from mice were obtained. The lung, liver, spleen, jejunum, and ileum were harvested, kept in liquid nitrogen immediately, stored at -80°C until analysis. For histopathological assessment, tissues and organs were fixed using 4% paraformaldehyde, hematoxylin eosin (H&E) was applied to examine the histological and pathological changes according to the standard protocol as described previously ([24]).
In the LPS-challenged mice experiment, lifespan of mice was monitored for 72 h. In the cocktail of MDR E. coli strains infection experiment, BW change, rectal temperature, diarrhea scores and fecal image, or survival rate were measured. For the diarrhea score evaluation producer was referred to previous study ([24]).
The concentrations of tumor necrosis factor-α (TNF-α), interleukin-6 (IL-6), IL-4, interferon (IFN)-γ, and nitric oxide (NO) in serum were measured. In addition, TNF-α and NO levels were also measured in the supernatant of RAW264.7 cells. ELISA was performed using a commercial ELISA kit (eBioscience, San Diego, USA). LPS levels in plasma were analyzed using the QCL-1000 kit (Xiamen, China) based on the manufacturer’s standards. On the day of sacrifice, eyes were extracted with ethylenediaminetetraacetic acid (EDTA), and blood was collected into clean test tubes. Peripheral hemograms and white blood cells (WBCs) were analyzed using a Coulter LH755 hematology analyzer. The levels of serum D-lactate were measured using ELISA kit (Jiancheng, Nanjing, China) according to the manufacturer’s protocols.
The extent and mRNA expression levels of TNF-α, IL-6, IL-10, IL-1β, IFN-γ, and TLR4, and NF-κB in each body part of the jejunum, ileum, colon, and spleen and in RAW264.7 cells were clarified by RT–PCR as previously described ([31]). Primers for TNF-α, IL-6, IL-10, IL-1β, IFN-γ, TLR4, and NF-κB are described in Table S1 . The specific assay steps were as follows: total RNA was extracted from the jejunum, ileum, spleen, and cells by TRIzol reagent (Invitrogen, Carlsbad, CA). Combined with gel electrophoresis and a NanoDrop 2000 spectrophotometer (Thermo Fisher Scientific, Wilmington, DE), the quality and quantity of total RNA were determined. […] Then the 2^-ΔΔCt method was used for the next step of analysis.
Frozen tissue samples and fresh cells were homogenized in RIPA lysis buffer containing protease inhibitors (Applygen, Beijing, China). Protein levels were determined using a BCA protein assay kit (Thermo Fisher Scientific, Rockford, IL). Thirty micrograms of tissue and cell protein samples were electrophoresed on SDS polyacrylamide gels and electrotransferred to PVDF membranes (Millipore). […]

E. coli K88 = test system: E. coli K88
Experimental: The resistance of MccJ25 to pepsin, trypsin and chymotrypsin was evaluated based on previous studies ([26]), with minor modifications. E. coli K88 cells were prepared (approximately 1 × 10^7 CFU/mL), and 1 mL of the bacterial suspension and MccJ25 were transferred into 9 mL of medium. For the control, MccJ25 was not added. LB agar inoculated with E. coli K88 cells (~10^5 viable cells/mL) was poured onto a plate containing an Oxford cup to form individual wells. Then, 2 and 4 h MccJ25 (1 × MIC) previously subjected to different treatments were added to the wells. The agar overlay was incubated overnight at 37°C, and the diameter of the growth inhibition zone was measured.
The simulated gastric fluid (SGF) and simulated intestinal fluid (SIF) were mainly based on the relevant contents of the Chinese Pharmacopoeia as described previously ([26]). SGF was configurated with 10 mg/mL pepsin, 0.03 M NaCl was used to blend the pH to 1.5, while SIF was configured with 10 mg/mL trypsin, 0.05 M KH2PO4 was used to blended pH as 7. SGF and SIF were then measured separately, and the antimicrobial activity of MccJ25 in serum was determined. E. coli K88 cells were grown in MHB (Difco Laboratories, Detroit, MI, USA). In short, 1 mL of the bacterial suspension and MccJ25 were transferred into 9 mL of medium. The control group was as follows: no MccJ25 was added to it. E. coli K88 cells with a live cell count maintained at approximately 10^5 cells per milliliter were inoculated on LB agar, which was then poured into plates equipped with Oxford cups, thus forming wells. Then, MccJ25 (1 × MIC) previously treated with SGF, SIF and serum for 2, 4, and 6 h was added to these wells. One of the agar substances covering the wells needs to be incubated overnight at 37°C, and finally, the size of its growth inhibition area, i.e., the diameter, needs to be determined.

plasmid DNA (pGEM-bGAL) = conditions: 400 ng plasmid DNA, 1 h room temperature, 1% agarose gel
Experimental: Based on the previously worked out method ([27]), briefly, gel retardation experiments were carried out, in which 400 ng of plasmid DNA (pGEM-bGAL; Promega) was increasingly bound to […] of binding buffer in MccJ25 binding and incubated for 1 h at room temperature. Then, […] of local loading buffer in each sample was […], and a 12 μL aliquot was bound to a 1% agarose gel. Finally, 0.5× Tris-borate-EDTA buffer was used for electrophoresis.

Compound: CC[C@H](C)[C@H](NC(=O)CNC(=O)[C@@H](NC(=O)[C@H](Cc1ccccc1)NC(=O)[C@H](Cc1ccc(O)cc1)NC(=O)[C@@H]1CCC(=O)NCC(=O)NCC(=O)N[C@@H](C)C(=O)NCC(=O)N[C@@H](Cc2c[nH]cn2)C(=O)N[C@@H](C(C)C)C(=O)N2CCC[C@H]2C(=O)N1)C(C)C)C(=O)NCC(=O)N[C@H](C(=O)N1CCC[C@H]1C(=O)N[C@H](C(=O)N[C@@H](CO)C(=O)N[C@@H](Cc1ccccc1)C(=O)N[C@@H](Cc1ccc(O)cc1)C(=O)NCC(=O)O)[C@@H](C)CC)[C@@H](C)O [MccJ25, microcin J25] (GGAGHVPEYFVGIGTPISFYG-OH; lactam N-8 (inferred); C-terminus assumed)
- jejunum and ileum histopathology ([1]; 4.55 mg/kg BW): moderate villus damage and epithelial cell sloughing
- jejunum and ileum histopathology ([1]; 9.1 mg/kg BW, compared with the control group): few changes in the villi, crypts and intestinal mucosa
- serum levels of TNF-α, IL-6 and NO ([1]; ELISA, after LPS treatment): showed a decreasing trend
- lung histopathology ([1]; H&E): partially reverse swelling and lung damage
- liver and spleen histopathology ([1]; H&E, MccJ25 30 min after LPS): substantially reduced the degree of edema and degradation of cytoplasmic proteins
- WBC count ([1]; different concentrations of MccJ25 vs LPS group): significantly reduce the counts of leukocytes
- TNF-α, TLR4 and IL-6 mRNA expression ([1]; ileum, colon, or spleen, q-PCR): significantly decreased
- plasma LPS concentrations ([1]; vs mice treated with LPS only): significantly decreased
- phosphorylated NF-κB, p38 MAPK and IκB protein expression ([1]; western blot, vs LPS-infected group): significantly decreased
- growth inhibition zone after heat treatment (E. coli K88; MccJ25 1 × MIC pre-treated at 121°C for 20 minutes, Oxford cup, LB agar, overnight 37°C, n = 6): greater than 22 mm
- growth inhibition zone after pH treatment (E. coli K88; MccJ25 1 × MIC pre-treated at pH 2.0 to 9.0 for 2 h, Oxford cup, LB agar, overnight 37°C, n = 6): greater than 22 mm
- antimicrobial activity after SIF, SGF or serum treatment (E. coli K88; MccJ25 1 × MIC pre-treated with SGF, SIF and serum for 2, 4 and 6 h, inhibition zone): essentially the same as that of MccJ25 subjected to a single treatment
- antimicrobial activity after protease challenge (E. coli K88; MccJ25 1 × MIC pre-treated with pepsin, trypsin or chymotrypsin for 2 and 4 h, inhibition zone): retained
- weight ratio (MccJ25:DNA) at which DNA migration was slightly inhibited (plasmid DNA (pGEM-bGAL)): above 2.0
